Activity calls are given as the source filed them. The rule behind the calls is not given here.

Here are results for four molecules from PubChem BioAssay AID1259407 (Chemical Carcinogenesis Research Information System (CCRIS), 2018).

In this series the test system is CCRIS mutagenicity, Ames/micronucleus/aberration tests. As to the kind of experiment: CCRIS mutagenicity studies.
Setting [1] is: Test System: AMES SALMONELLA TYPHIMURIUM, Strain/Indicator: TA98, Metabolic Activation: NONE, Method: PREINCUBATION
The mark [2] stands for this setting: Test System: AMES SALMONELLA TYPHIMURIUM, Strain/Indicator: TA98, Metabolic Activation: RAT, LIVER, S-9, AROCLOR 1254, Method: PREINCUBATION
The mark [3] stands for this setting: Test System: AMES SALMONELLA TYPHIMURIUM, Strain/Indicator: TA100, Metabolic Activation: NONE, Method: PREINCUBATION
[4] abbreviates: Test System: AMES SALMONELLA TYPHIMURIUM, Strain/Indicator: TA100, Metabolic Activation: RAT, LIVER, S-9, AROCLOR 1254, Method: PREINCUBATION
Setting [5] is: Test System: AMES SALMONELLA TYPHIMURIUM, Strain/Indicator: TA1535, Metabolic Activation: NONE, Method: PREINCUBATION
The mark [6] stands for this setting: Test System: AMES SALMONELLA TYPHIMURIUM, Strain/Indicator: TA97, Metabolic Activation: NONE, Method: PREINCUBATION

In the case of `CC1(C)S[C@@H]2[C@H](NC(=O)COc3ccccc3)C(=O)N2[C@H]1C(=O)O`, the mutagenic call (Test System: AMES SALMONELLA TYPHIMURIUM, Strain/Indicator: TA98, Metabolic Activation: HAMSTER, LIVER, S-9, AROCLOR 1254, Method: PREINCUBATION) is “inactive; negative”; the mutagenic call under setting [1] was “inactive; negative”; the mutagenic call under setting [2] is “inactive; negative”; the mutagenic call (Test System: AMES SALMONELLA TYPHIMURIUM, Strain/Indicator: TA100, Metabolic Activation: HAMSTER, LIVER, S-9, AROCLOR 1254, Method: PREINCUBATION) was “inactive; negative”; the mutagenic call under setting [3] was “inactive; negative”; the mutagenic call under setting [4] is “inactive; negative”. The mutagenic call is “inactive; negative” (Test System: AMES SALMONELLA TYPHIMURIUM, Strain/Indicator: TA1535, Metabolic Activation: HAMSTER, LIVER, S-9, AROCLOR 1254, Method: PREINCUBATION); “inactive; negative” under setting [5]; “inactive; negative” (Test System: AMES SALMONELLA TYPHIMURIUM, Strain/Indicator: TA1535, Metabolic Activation: RAT, LIVER, S-9, AROCLOR 1254, Method: PREINCUBATION); “inactive; negative” (Test System: AMES SALMONELLA TYPHIMURIUM, Strain/Indicator: TA1537, Metabolic Activation: HAMSTER, LIVER, S-9, AROCLOR 1254, Method: PREINCUBATION); “inactive; negative” (Test System: AMES SALMONELLA TYPHIMURIUM, Strain/Indicator: TA1537, Metabolic Activation: NONE, Method: PREINCUBATION); “inactive; negative” (Test System: AMES SALMONELLA TYPHIMURIUM, Strain/Indicator: TA1537, Metabolic Activation: RAT, LIVER, S-9, AROCLOR 1254, Method: PREINCUBATION). The mutagenic call is “inactive; negative” (Test System: MOUSE LYMPHOMA, Strain/Indicator: L5178Y (TK+/TK-), Metabolic Activation: NONE, Method: SUSPENSION/PLATE) and “active; positive” (Test System: MOUSE LYMPHOMA, Strain/Indicator: L5178Y (TK+/TK-), Metabolic Activation: RAT, LIVER, S-9, Method: SUSPENSION/PLATE).
For the molecule `CCCCc1ccc(N=Cc2ccc(OC)cc2)cc1`, the mutagenic call is, setting by setting: under setting [1], “inactive; negative”; (Test System: AMES SALMONELLA TYPHIMURIUM, Strain/Indicator: TA100, Metabolic Activation: HAMSTER, LIVER, S-9, AROCLOR 1254 (30%), Method: PREINCUBATION) “active; positive”; under setting [3], “inactive; negative”; (Test System: AMES SALMONELLA TYPHIMURIUM, Strain/Indicator: TA100, Metabolic Activation: RAT, LIVER, S-9, AROCLOR 1254 (30%), Method: PREINCUBATION) “inactive; negative”.
With `COc1ccc2c3c([nH]c2c1)C(C)=NCC3`, the mutagenic call runs as follows: under setting [6], “inactive; negative”; (Test System: AMES SALMONELLA TYPHIMURIUM, Strain/Indicator: TA97, Metabolic Activation: RAT, LIVER, S-9, AROCLOR 1254, Method: PREINCUBATION) “inactive; negative”; under setting [1], “inactive; negative”; under setting [2], “inactive; negative”; under setting [3], “inactive; negative”; under setting [4], “inactive; negative”. Further, the mutagenic call runs as follows: (Test System: AMES SALMONELLA TYPHIMURIUM, Strain/Indicator: TA102, Metabolic Activation: NONE, Method: PREINCUBATION) “inactive; negative”; (Test System: AMES SALMONELLA TYPHIMURIUM, Strain/Indicator: TA102, Metabolic Activation: RAT, LIVER, S-9, AROCLOR 1254, Method: PREINCUBATION) “inactive; negative”.
For `CN(C)c1ccc(N=NS(=O)(=O)O)cc1`, the mutagenic call is “active; positive” (Test System: AMES SALMONELLA TYPHIMURIUM, Strain/Indicator: TA97, Metabolic Activation: HAMSTER, LIVER, S-9, AROCLOR 1254 (10%), Method: PREINCUBATION); “active; positive” under setting [6]; “active; positive” (Test System: AMES SALMONELLA TYPHIMURIUM, Strain/Indicator: TA97, Metabolic Activation: RAT, LIVER, S-9, AROCLOR 1254 (10%), Method: PREINCUBATION); “active; positive” (Test System: AMES SALMONELLA TYPHIMURIUM, Strain/Indicator: TA98, Metabolic Activation: HAMSTER, LIVER, S-9, AROCLOR 1254 (10%), Method: PREINCUBATION); “active; positive” under setting [1]; “active; positive” (Test System: AMES SALMONELLA TYPHIMURIUM, Strain/Indicator: TA98, Metabolic Activation: NONE, Method: STANDARD PLATE). The mutagenic call runs as follows: (Test System: AMES SALMONELLA TYPHIMURIUM, Strain/Indicator: TA98, Metabolic Activation: RAT, LIVER, S-9, AROCLOR 1254 (10%), Method: PREINCUBATION) “active; positive”; (Test System: AMES SALMONELLA TYPHIMURIUM, Strain/Indicator: TA98, Metabolic Activation: S-9 MIX, Method: STANDARD PLATE) “active; positive”; (Test System: AMES SALMONELLA TYPHIMURIUM, Strain/Indicator: TA100, Metabolic Activation: HAMSTER, LIVER, S-9, AROCLOR 1254 (10%), Method: PREINCUBATION) “active; positive”; under setting [3], “active; positive”; (Test System: AMES SALMONELLA TYPHIMURIUM, Strain/Indicator: TA100, Metabolic Activation: RAT, LIVER, S-9, AROCLOR 1254 (10%), Method: PREINCUBATION) “active; positive”; (Test System: AMES SALMONELLA TYPHIMURIUM, Strain/Indicator: TA1535, Metabolic Activation: HAMSTER, LIVER, S-9, AROCLOR 1254 (10%), Method: PREINCUBATION) “active; positive”. The mutagenic call by setting is: under setting [5], “inactive; negative”; (Test System: AMES SALMONELLA TYPHIMURIUM, Strain/Indicator: TA1535, Metabolic Activation: RAT, LIVER, S-9, AROCLOR 1254 (10%), Method: PREINCUBATION) “inactive; negative”; (Test System: E. COLI, Strain/Indicator: WP2, Metabolic Activation: NONE, Method: STANDARD PLATE) “active; positive”; (Test System: E. COLI, Strain/Indicator: WP2 UVRA, Metabolic Activation: NONE, Method: STANDARD PLATE) “active; positive”.
